Reference: ChEMBL document CHEMBL1201862, “PubChem BioAssay data set” (2004)
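Assay format: 96-well plates, 48-hour exposure. The concentration for 50% growth inhibition is given as GI50.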 Active and inactive are the calls of the source. Rule as the data show it: active = GI50 up to about 1.1 µM and inactive = higher.

Experiments:
Assay in all cases: DTP human tumour cell line panel, 48 h
A498 = test system: A498
DLD-1 = test system: DLD-1
PC-3 = test system: PC-3
Hs-578T = test system: Hs-578T
ACHN = test system: ACHN
TK-10 = test system: TK-10

| Structure (SMILES) | GI50 (A498) | GI50 (DLD-1) | GI50 (PC-3) | GI50 (Hs-578T) | GI50 (ACHN) | GI50 (TK-10) |
| --- | --- | --- | --- | --- | --- | --- |
| Cc1ccc2nc3c(C(=O)NCCN(C)C)cccc3cc2c1 | 1.56 µM (inactive) | 2.01 µM (inactive) | – | – | – | – |
| CC(=O)O[C@H]1CC[C@H]2[C@@H]3CC[C@H]4Nc5c(cnn5S(C)(=O)=O)C[C@]4(C)[C@H]3CC[C@]12C | > 100 µM (inactive) | – | 64.4 µM (inactive) | 45.6 µM (inactive) | – | – |
| O=C1CN2C(Cl)(Cl)C2(c2ccccc2)c2cc(Cl)ccc2N1CC(F)(F)F (stereo not given) | – | 16.4 µM (inactive) | – | – | 33.7 µM (inactive) | 50.2 µM (inactive) |
| O=S1(=O)C[C@@H](NCc2ccccc2)[C@H](NCc2ccccc2)C1 | – | – | > 100 µM (inactive) | > 100 µM (inactive) | > 100 µM (inactive) | > 100 µM (inactive) |
| CN1C2CC(=O)CC1[C@H](O)[C@@H]2O | – | – | > 100 µM (inactive) | – | – | > 100 µM (inactive) |
| CC1OC1C(=O)C1(O)C(C)C(O)C23OC2(C(O)c2c(O)cccc2C3=O)C1O (stereo not given) [CERVICARCIN] | 0.352 µM (active) | 0.167 µM (active) | – | – | – | – |
| COc1ccc2c3c1O[C@H]1C[C@@H](O)C=C[C@@]31CCN(C)C2 [GALANTAMINE] | > 150 µM (inactive) | 50 µM (inactive) | – | – | – | – |
| O=c1cc[nH]c(=O)[nH]1 [URACIL] | 6.82 µM (inactive) | 532 µM (inactive) | – | – | – | – |
